From patent US20190169218A1, “AMPHIPATHIC COMPOUND HAVING NOVEL PENTA-SACCHARIDE HYDROPHILIC GROUP AND USE THEREOF” (Industry-University Cooperation Foundation Hanyang …, priority 2016, published 2019)

What was measured:
[1] = system: T4L-β2AR-Gs or β2AR-Gs complexes; assay: purification and stability of T4L-β2AR-Gs or β2AR-Gs complexes (analytical gel filtration, negative staining EM); parameters: species or system human
Experimental: The ability of PSE-C11 or TPS-E10L to purify and stabilize T4L-β2AR-Gs or β2AR-Gs complexes was measured using electron microscopy (EM) analysis.
Specifically, measurement of the ability of PSE-C11 for TPS-E10L to purify and stabilize T4L-β2AR-Gs or β2AR-Gs complexes was performed as follows. 100 μM T4L-β2AR solubilized in 0.1 wt % DDM was mixed with 120 μM Gs heterotrimers for 30 minutes. 0.5 units of apyrase (NEB) and 2 mM MgCl2 were added to the mixture, followed by a 1-hour incubation to form complexes. 1 wt % PSE-C11 or TPS-E10L was respectively added to the mixture to achieve a final concentration of 0.8%, and incubated for 30 minutes to allow DDM to be exchanged with PSE-C11 or TPS-E10L. […] Finally, proteins were eluted with a 0.05% (100×CMC) PSE-C11 or TPS-E10L buffer. Gel filtration was performed using a running buffer (20 mM HEPES (pH 7.5), 100 mM NaCl, 0.005% PSE-C11 or TPS-E10L, 1 μM BI, 100 μM TCEP) to purify T4L-β2AR-Gs complexes. To measure the stability of β2AR-Gs complexes present in PSE-C11 or TPS-E10L, analytical gel filtration was performed with running buffers of the same formulation at 12 hours, 1 day, 3 days, 7 days, and 15 days. After a 15 day-incubation, analytical gel filtration was performed using an amphiphilic compound pre-buffer having the same formulation as above without PSE-C11 or TPS-E10L.
In addition, negative staining EM analysis for T4L-β2AR-Gs or β2AR-Gs complexes present in PSE-C11 was performed as follows. Samples containing T4L-β2AR-Gs or β2AR-Gs were prepared to perform electron microscopy analysis using a conventional negative staining protocol (see Peisley, A. et al., G Protein-Coupled Receptors in Drug Discovery: Methods and Protocols, Methods in Molecular Biology, 1335, 29-38 (2015)), and imaging was performed by operating a Tecnai T12 electron microscope at 120 kV at room temperature. Images were recorded with a Gatan US4000 CCD camera at a 71,138×magnification with a defocus value of ˜[…].

[2] = molecular target: T1, uric acid-xanthine/H+ symporter (UapA) (Emericella nidulans, UniProt Q07307, G411V); assay: thermal stability of UapA by CPM analysis; parameters: species or system Aspergillus nidulans; details: CMC+0.04 wt % and CMC+0.2 wt %, 40° C., 120 minutes
T1 construct: GFP; made in house; host or cells: Saccharomyces cerevisiae FGY217
Experimental: The ability of TPSs (TPS-As, TPS-Es and TPS-ELs) to stabilize the structure of uric acid-xanthine/H+ symporter (UapA) isolated from Aspergillus nidulans was measured. The structural stability of UapA was evaluated using a sulfhydryl-specific fluorophore, N-[4-(7-diethylamino-4-methyl-3-coumarinyl)phenyl]maleimide (CPM).
Specifically, UapAG411V1-11 (hereinafter, referred to as ‘UapA’) was expressed in a Saccharomyces cerevisiae FGY217 strain as a GFP fusion protein, and was isolated using a sample buffer (20 mM Tris (pH 7.5), 150 mM NaCl, 0.03% DDM, 1 mM xanthine). The transporter was concentrated to about 10 mg/mL using a 100 kDa molecular weight cut-off filter (Millipore). The transporter was diluted with a CMC+0.04 wt % or CMC+0.2 wt % buffer at a ratio of 1:150 in a Greiner 96-well plate containing one of TPS-As (TPS-A6, TPS-A7 or TPS-A8), TPS-Es (TPS-E6, TPS-E7 or TPS-E8), TPS-ELs (TPS-E8L, TPS-E9L, TPS-E10L or TPS-E11L), MNG-3 or DDM (control group). […] During incubation, fluorescence emission intensity was monitored using a microplate spectrophotometer set at excitation and emission wavelengths of 387 and 463 nm, respectively. The maximum value of fluorescence intensity was used to calculate the relative percentage of folded transporters during the incubation period. […]

T1 sequence (Q07307 12-574 G411V): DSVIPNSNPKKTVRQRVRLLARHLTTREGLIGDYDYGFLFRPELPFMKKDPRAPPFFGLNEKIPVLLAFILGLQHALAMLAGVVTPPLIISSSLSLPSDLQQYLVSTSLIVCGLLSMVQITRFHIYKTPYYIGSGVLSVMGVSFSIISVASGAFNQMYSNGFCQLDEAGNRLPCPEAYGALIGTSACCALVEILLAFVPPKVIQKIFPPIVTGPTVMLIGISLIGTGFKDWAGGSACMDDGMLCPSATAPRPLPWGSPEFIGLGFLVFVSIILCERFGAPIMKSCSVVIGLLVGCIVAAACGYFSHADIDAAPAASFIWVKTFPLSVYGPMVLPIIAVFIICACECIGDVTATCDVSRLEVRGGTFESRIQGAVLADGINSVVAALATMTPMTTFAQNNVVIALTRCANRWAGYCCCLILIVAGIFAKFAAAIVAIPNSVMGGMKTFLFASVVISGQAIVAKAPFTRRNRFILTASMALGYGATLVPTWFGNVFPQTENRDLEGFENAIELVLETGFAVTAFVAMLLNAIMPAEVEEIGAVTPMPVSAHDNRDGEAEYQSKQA

| Compound | stability of β2AR-Gs complexes (analytical gel filtration) ([1]; after incubation for 15 and 17 days) | stability of complexes ([1]; buffer without the amphipathic compound as eluent) | maintaining folding state of UapA (CPM) [2] |
| --- | --- | --- | --- |
| CCCCCCCCCCCOCC(COCCCCCCCCCCC)O[C@@H]1OC(CO[C@@H]2OC(CO)[C@@H](O)C(O)C2O)[C@@H](O[C@@H]2OC(CO)[C@@H](O)C(O)C2O)C(O[C@@H]2OC(CO)[C@@H](O)C(O)C2O)C1O[C@@H]1OC(CO)[C@@H](O)C(O)C1O (stereo partly drawn) [PSE-C11] | no separation of the complexes was observed at all | completely stable | – |
| CCCCCCCCOCC(COCCCCCCCC)(COCCCCCCCC)CO[C@@H]1OC(CO[C@@H]2OC(CO)[C@@H](O)C(O)C2O)[C@@H](O[C@@H]2OC(CO)[C@@H](O)C(O)C2O)C(O[C@@H]2OC(CO)[C@@H](O)C(O)C2O)C1O[C@@H]1OC(CO)[C@@H](O)C(O)C1O (stereo partly drawn) [TPS-E8] | – | – | the most excellent among TPS-As/Es |
